Values belong to the compound of their own block, whether it stands above or below them.
Key:
[1] = target: T1, AP1G1 AP-1 complex subunit gamma-1 (Homo sapiens, UniProt O43747); test: competitive isoTOP-ABPP; format: binding; settings: for R value (DMSO/fragment) for probe 1 labeling: O43747_K214; for R value (DMSO/fragment) for probe 1 labeling / isoTOP-ABPP reactivity ratio at lysine O43747_K214 / isoTOP-ABPP ratio (R) at liganded lysine O43747_K214: 50 uM, in vitro; for R value (DMSO/fragment) for probe 1 labeling / isoTOP-ABPP reactivity ratio at lysine O43747_K214: 231 sol; for isoTOP-ABPP ratio (R) at liganded lysine O43747_K214: sol, 231; for isoTOP-ABPP ratio, lysine O43747_K214: 50 uM_231_sol_in vitro
T1 construct: isoTOP-ABPP experiments performed in cell lysates (in vitro); endogenous in cells; host or cells: MDA-MB-231 soluble lysate
T1 sequence (O43747 1-822): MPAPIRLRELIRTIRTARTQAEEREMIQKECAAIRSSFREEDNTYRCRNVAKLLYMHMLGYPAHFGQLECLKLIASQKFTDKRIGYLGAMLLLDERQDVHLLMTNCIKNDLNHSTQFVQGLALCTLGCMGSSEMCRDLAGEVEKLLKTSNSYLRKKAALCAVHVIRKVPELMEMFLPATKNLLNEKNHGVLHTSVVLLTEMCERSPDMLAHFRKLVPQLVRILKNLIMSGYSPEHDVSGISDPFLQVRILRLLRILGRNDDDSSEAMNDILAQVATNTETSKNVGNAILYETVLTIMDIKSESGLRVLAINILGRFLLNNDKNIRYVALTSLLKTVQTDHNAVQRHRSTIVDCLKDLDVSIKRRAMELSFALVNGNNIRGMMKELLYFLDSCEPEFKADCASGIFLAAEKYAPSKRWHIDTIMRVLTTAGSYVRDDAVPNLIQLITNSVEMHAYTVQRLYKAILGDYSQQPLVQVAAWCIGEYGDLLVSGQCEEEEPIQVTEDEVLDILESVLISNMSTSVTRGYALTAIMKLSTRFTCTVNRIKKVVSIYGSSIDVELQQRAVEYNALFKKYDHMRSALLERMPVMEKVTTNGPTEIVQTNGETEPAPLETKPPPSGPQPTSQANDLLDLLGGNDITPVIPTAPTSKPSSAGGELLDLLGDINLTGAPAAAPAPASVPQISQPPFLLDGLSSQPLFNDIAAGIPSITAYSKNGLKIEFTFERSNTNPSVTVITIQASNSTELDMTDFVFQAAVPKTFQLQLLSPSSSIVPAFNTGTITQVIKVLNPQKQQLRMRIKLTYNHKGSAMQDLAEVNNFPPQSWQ
Method: (§1) In vitro covalent fragment treatment for isoTOP-ABPP. All compounds were made up as solutions in DMSO (100×) and were used at a final concentration of 50 μM for activated esters and 100 μM for guanidinylating agents. For each profiling sample, 0.5 ml of lysate was treated with 5 μl of the 100× compound stock solution or 5 μl of DMSO. Samples were treated with activated esters for
(§2) STP-alkyne labeling and click chemistry. For concentration-dependent reactivity measurements by isoTOP-ABPP, 0.5 ml proteome aliquots were treated at ambient temperature with 1 mM STP-alkyne 1 (5 μl of 100 mM stock in DMSO) and 0.1 mM STP alkyne 1 (5 μl of 10 mM stock in DMSO), respectively. For competitive isoTOP-ABPP, after in vitro fragment treatment (detailed above), the samples were labeled for 1 h at ambient temperature with 0.1 mM STP-alkyne 1 (5 μl of 10 mM stock in DMSO). Samples were conjugated by copper-mediated azide-alkyne cycloaddition (CuAAC) to either the light (1 mM STP-alkyne or fragment treated) or heavy (0.1 mM STP-alkyne or DMSO treated) TEV tags (10 μl of 5 mM stocks in DMSO, final concentration=100 μM) using tris(2-carboxyethyl)phosphine hydrochloride
(§3) R value calculation and processing. The ratios of light and heavy MS1 peaks for each unique peptide were quantified with a CIMAGE software using default parameters (3 MS1 acquisitions per peak and signal to noise threshold set to 2.5). For reactivity measurements by isoTOP-ABPP, the R value was calculated from the ratio of MS1 peak areas, comparing the 1 mM STP alkyne sample (light TEV tag) with the 0.1 mM STP alkyne sample (heavy TEV tag). For competitive isoTOP-ABPP, the R value was calculated from the ratio of MS1 peak areas, comparing the DMSO treated sample (heavy TEV tag) with the compound treated sample (light TEV tag). […] Ratios for unique peptide entries are calculated for each experiment; overlapping peptides with the same modified lysine (for example, different charge states, MudPIT chromatographic steps or tryptic termini) are grouped together and the median ratio is reported as the final ratio (R). The peptide ratios reported by CIMAGE were further filtered to ensure the removal or correction of low-quality ratios in each individual data set. The quality filters applied were the following: removal of half tryptic peptides; for ratios with high standard deviations from the median (90% of the median or above) the lowest ratio was taken instead of the median; removal of peptides with R=20 and only a single MS2 event triggered during the elution of the parent ion; manual annotation of all the peptides with ratios of 20, removing any peptides with low quality elution profiles that remained after the previous curation steps (only done for competitive isoTOP-ABPP).
(§4) Cross-data processing for fragment screening. For compound treated samples, biological replicates of the same condition were averaged, if the standard deviation was below 60% of the mean; otherwise, for lysines with at least one R value <4 for a particular compound, the lowest value of the ratio set was taken. For lysines, where all R values for a particular compound were ≥4, the average was reported. For peptides containing several possible modified lysines, the lysine with the highest number of quantification events was used for analysis and the remaining, redundant peptides were reported as alternative modification sites. Peptides included in the aggregate dataset (those used for further bioinformatics and statistical analyses) were required to have been quantified in 2 experiments for competitive isoTOP-ABPP. Lysines were categorized as liganded, if they had at least one ratio R≥4 (hit fragments). For liganded lysines with R=20 for all liganding events, lysines were required to have been quantified with R=20 in two separate experiments and were further required to have been quantified with R<20 in one additional experiment.

[2] = target: T2, HNRNPK Heterogeneous nuclear ribonucleoprotein K (Homo sapiens, UniProt P61978); test: competitive isoTOP-ABPP; format: binding; settings: 50 uM, in vitro; for R value (DMSO/fragment) for probe 1 labeling: P61978_K405; for R value (DMSO/fragment) for probe 1 labeling / isoTOP-ABPP reactivity ratio at lysine P61978_K405: 231 sol; for isoTOP-ABPP ratio (R) at liganded lysine P61978_K405: sol, 231
T2 construct: isoTOP-ABPP experiments performed in cell lysates (in vitro); endogenous in cells; host or cells: soluble proteome of human cancer cell lines (MDA-MB-231, Ramos, Jurkat)
Method: as §1, §2, §3, §4

Compound: O=C(CCc1cn(-c2ccccc2)nc1-c1ccccc1)Oc1ccc([N+](=O)[O-])cc1[N+](=O)[O-] [fragment 29, 2,4-Dinitrophenyl 3-(1,3-diphenyl-1H-pyrazol-4-yl)propanoate]
isoTOP-ABPP reactivity ratio at lysine O43747_K214 [1]: 1.0
isoTOP-ABPP reactivity ratio at lysine P61978_K405 [2]: 20.0

Compound: O=C(Oc1ccc([N+](=O)[O-])cc1[N+](=O)[O-])C(c1ccccc1)c1ccccc1 [fragment 30, 2,4-Dinitrophenyl 2,2-diphenylacetate]
isoTOP-ABPP reactivity ratio at lysine O43747_K214 [1]: 1.1
isoTOP-ABPP reactivity ratio at lysine P61978_K405 [2]: 0.9

Compound: O=C(Oc1ccc([N+](=O)[O-])cc1[N+](=O)[O-])c1cc(C(F)(F)F)cc(C(F)(F)F)c1 [fragment 31, 2,4-Dinitrophenyl 3,5-bis(trifluoromethyl)benzoate]
isoTOP-ABPP reactivity ratio at lysine O43747_K214 [1]: 0.9

Compound: Cn1cc(CC(=O)Oc2ccc([N+](=O)[O-])cc2[N+](=O)[O-])c2ccccc21 [fragment 32, 2,4-Dinitrophenyl 2-(1-methyl-1H-indol-3-yl)acetate]
isoTOP-ABPP reactivity ratio at lysine O43747_K214 [1]: 6.6
isoTOP-ABPP reactivity ratio at lysine P61978_K405 [2]: 0.9

Compound: COc1cc(CCC(=O)Oc2ccc([N+](=O)[O-])cc2[N+](=O)[O-])cc(OC)c1OC [fragment 33, 2,4-Dinitrophenyl 3-(3,4,5-trimethoxyphenyl)propanoate]
isoTOP-ABPP reactivity ratio at lysine O43747_K214 [1]: 1.7

Compound: O=C(Oc1ccc([N+](=O)[O-])cc1[N+](=O)[O-])C1CCN(C(=O)OCc2ccccc2)CC1 [fragment 34, 1-Benzyl 4-(2,4-dinitrophenyl) piperidine-1,4-dicarboxylate]
isoTOP-ABPP ratio (R) at liganded lysine O43747_K214 [1]: 1.7
isoTOP-ABPP ratio (R) at liganded lysine P61978_K405 [2]: 1.4

Compound: O=C(Oc1ccc([N+](=O)[O-])cc1[N+](=O)[O-])c1ccc2ccccc2n1 [fragment 35, 2,4-Dinitrophenyl quinoline-2-carboxylate]
isoTOP-ABPP ratio (R) at liganded lysine O43747_K214 [1]: 1.0
isoTOP-ABPP ratio (R) at liganded lysine P61978_K405 [2]: 0.9

Compound: O=C(CCc1coc2cc(F)ccc2c1=O)Oc1ccc([N+](=O)[O-])cc1[N+](=O)[O-] [fragment 36, 2,4-Dinitrophenyl 3-(7-fluoro-4-oxo-4H-chromen-3-yl)propanoate]
isoTOP-ABPP ratio (R) at liganded lysine O43747_K214 [1]: 1.1

Compound: O=C(Oc1ccc([N+](=O)[O-])cc1[N+](=O)[O-])c1ccc(-c2ccccc2)cc1 [fragment 37, 2,4-Dinitrophenyl [1,1′-biphenyl]-4-carboxylate]
isoTOP-ABPP ratio (R) at liganded lysine O43747_K214 [1]: 0.9
isoTOP-ABPP ratio (R) at liganded lysine P61978_K405 [2]: 0.9

Compound: O=C(CC12CC3CC(CC(C3)C1)C2)Oc1ccc([N+](=O)[O-])cc1[N+](=O)[O-] [fragment 38, 2,4-Dinitrophenyl 2-(adamantan-1-yl)acetate]
isoTOP-ABPP ratio (R) at liganded lysine O43747_K214 [1]: 0.9
isoTOP-ABPP ratio (R) at liganded lysine P61978_K405 [2]: 20.0

Compound: O=C(Oc1ccc([N+](=O)[O-])cc1[N+](=O)[O-])C(c1ccccc1)(c1ccccc1)c1ccccc1 [fragment 42, 2,4-Dinitrophenyl 2,2,2-triphenylacetate]
isoTOP-ABPP ratio (R) at liganded lysine O43747_K214 [1]: 0.8

Now from value to compound:

R value (DMSO/fragment) for probe 1 labeling [1]: 1.0
R value (DMSO/fragment) for probe 1 labeling [2]: 1.3
Compound: O=C(CCc1cn(-c2ccccc2)nc1-c1ccccc1)Oc1c(F)c(F)c(F)c(F)c1F [fragment 19, Pentafluorophenyl 3-(1,3-diphenyl-1H-pyrazol-4-yl)propanoate]

R value (DMSO/fragment) for probe 1 labeling [1]: 0.9
R value (DMSO/fragment) for probe 1 labeling [2]: 1.0
Compound: O=C(Oc1c(F)c(F)c(F)c(F)c1F)C(c1ccccc1)c1ccccc1 [fragment 20, Pentafluorophenyl 2,2-diphenylacetate]

R value (DMSO/fragment) for probe 1 labeling [1]: 0.9
R value (DMSO/fragment) for probe 1 labeling [2]: 1.0
Compound: O=C(Oc1c(F)c(F)c(F)c(F)c1F)c1cc(C(F)(F)F)cc(C(F)(F)F)c1 [fragment 21, Pentafluorophenyl 3,5-bis(trifluoromethyl)benzoate]

R value (DMSO/fragment) for probe 1 labeling [1]: 1.1
Compound: Cn1cc(CC(=O)Oc2c(F)c(F)c(F)c(F)c2F)c2ccccc21 [fragment 22, Pentafluorophenyl 2-(1-methyl-1H-indol-3-yl)acetate]

R value (DMSO/fragment) for probe 1 labeling [1]: 1.1
Compound: COc1cc(CCC(=O)Oc2c(F)c(F)c(F)c(F)c2F)cc(OC)c1OC [fragment 23, Pentafluorophenyl 3-(3,4,5-trimethoxyphenyl)propanoate]

isoTOP-ABPP reactivity ratio at lysine O43747_K214 [1]: 1.0
Compound: O=C(Oc1c(F)c(F)c(F)c(F)c1F)C1CCN(C(=O)OCc2ccccc2)CC1 [fragment 24, 1-Benzyl 4-(pentafluorophenyl) piperidine-1,4-dicarboxylate]

isoTOP-ABPP reactivity ratio at lysine O43747_K214 [1]: 1.0
isoTOP-ABPP reactivity ratio at lysine P61978_K405 [2]: 1.3
Compound: O=C(Oc1c(F)c(F)c(F)c(F)c1F)c1ccc2ccccc2n1 [fragment 25, Pentafluorophenyl quinoline-2-carboxylate]

isoTOP-ABPP reactivity ratio at lysine O43747_K214 [1]: 1.1
isoTOP-ABPP reactivity ratio at lysine P61978_K405 [2]: 0.9
Compound: O=C(CCc1coc2cc(F)ccc2c1=O)Oc1c(F)c(F)c(F)c(F)c1F [fragment 26, Pentafluorophenyl 3-(7-fluoro-4-oxo-4H-chromen-3-yl)propanoate]

isoTOP-ABPP reactivity ratio at lysine O43747_K214 [1]: 0.9
isoTOP-ABPP reactivity ratio at lysine P61978_K405 [2]: 1.0
Compound: O=C(CN1C(=O)c2ccccc2C1=O)Oc1c(F)c(F)c(F)c(F)c1F [fragment 27, Pentafluorophenyl 2-(1,3-dioxoisoindolin-2-yl)acetate]

isoTOP-ABPP reactivity ratio at lysine O43747_K214 [1]: 1.0
Compound: CCn1cc(C(=O)Oc2c(F)c(F)c(F)c(F)c2F)c(=O)c2ccc(C)nc21 [fragment 28, Pentafluorophenyl 1-ethyl-7-methyl-4-oxo-1,4-dihydro-1,8-naphthyridine-3-carboxylate]

isoTOP-ABPP ratio, lysine O43747_K214 [1]: 0.8
Compound: O=C(Oc1c(F)c(F)c(C(F)(F)F)c(F)c1F)c1cc(C(F)(F)F)cc(C(F)(F)F)c1 [fragment 47, 2,3,5,6-Tetrafluoro-4-(trifluoromethyl)phenyl 3,5-bis(trifluoromethyl)benzoate]

isoTOP-ABPP ratio, lysine O43747_K214 [1]: 0.8
Compound: O=C(Oc1c(F)c(F)cc(F)c1F)c1cc(C(F)(F)F)cc(C(F)(F)F)c1 [fragment 48, 2,3,5,6-Tetrafluorophenyl 3,5-bis(trifluoromethyl)benzoate]
